Results on 55 compounds are retold here after patent US8741892B2, “Compounds” (Boehringer Ingelheim International GmbH, priority 2011, dated 2014).

T1 sequence (P41594 21-1212): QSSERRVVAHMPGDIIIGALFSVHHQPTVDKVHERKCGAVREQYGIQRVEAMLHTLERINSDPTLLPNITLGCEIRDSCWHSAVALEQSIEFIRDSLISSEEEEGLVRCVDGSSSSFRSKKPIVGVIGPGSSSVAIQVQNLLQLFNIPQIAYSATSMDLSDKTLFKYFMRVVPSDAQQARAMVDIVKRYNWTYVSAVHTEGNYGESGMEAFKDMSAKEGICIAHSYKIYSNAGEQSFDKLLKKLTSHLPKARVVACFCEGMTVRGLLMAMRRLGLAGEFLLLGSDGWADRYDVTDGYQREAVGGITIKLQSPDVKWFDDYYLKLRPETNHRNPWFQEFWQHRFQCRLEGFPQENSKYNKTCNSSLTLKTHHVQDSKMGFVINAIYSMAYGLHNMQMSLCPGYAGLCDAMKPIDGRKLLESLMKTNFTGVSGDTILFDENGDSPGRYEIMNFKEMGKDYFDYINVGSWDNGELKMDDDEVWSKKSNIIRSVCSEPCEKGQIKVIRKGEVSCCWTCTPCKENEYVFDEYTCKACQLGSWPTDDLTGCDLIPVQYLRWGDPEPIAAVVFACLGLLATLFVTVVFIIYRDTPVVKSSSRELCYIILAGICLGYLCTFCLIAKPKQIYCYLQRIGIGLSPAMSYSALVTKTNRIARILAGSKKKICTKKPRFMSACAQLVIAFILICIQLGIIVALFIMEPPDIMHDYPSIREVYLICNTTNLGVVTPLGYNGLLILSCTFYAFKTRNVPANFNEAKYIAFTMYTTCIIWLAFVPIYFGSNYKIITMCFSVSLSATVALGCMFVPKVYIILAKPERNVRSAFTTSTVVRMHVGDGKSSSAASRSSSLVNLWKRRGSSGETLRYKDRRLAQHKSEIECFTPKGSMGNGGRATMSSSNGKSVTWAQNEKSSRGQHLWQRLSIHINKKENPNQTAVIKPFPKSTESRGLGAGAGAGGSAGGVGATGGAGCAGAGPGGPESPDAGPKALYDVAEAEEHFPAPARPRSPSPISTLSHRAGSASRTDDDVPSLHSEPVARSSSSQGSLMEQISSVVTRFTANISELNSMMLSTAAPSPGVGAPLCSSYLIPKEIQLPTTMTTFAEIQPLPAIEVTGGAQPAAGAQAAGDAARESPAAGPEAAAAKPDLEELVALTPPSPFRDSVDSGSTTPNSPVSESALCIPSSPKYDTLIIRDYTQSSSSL

This test has as its target T1, human recombinant mGluR5 (Homo sapiens, UniProt P41594).
T1 construct: expressed in transfected cells; host or cells: HEK 293
As to the kind of experiment: positive modulation of mGluR5, calcium based FLIPR assay. To be noted: HEK 293 cell line expressing human recombinant mGluR5; EC50 of the modulation from peak Ca fluorescence signal after glutamate at approx. 5% basal stimulation. The protocol: The positive modulation of mGluR5 is measured in a HEK 293 cell line expressing human recombinant mGluR5 and is detected with calcium based FLIPR assay. The cells are cultured with DMEM supplemented with 10% FCS, 2 μg/mL tetracycline, 100 μg/mL hygromycin and 500 μg/mL geneticin. The cell culture media is exchanged for tetracycline-free cell culture media 3-7 days before the assay. One day before the assay the cell culture medium is exchanged to DMEM without glutamine and phenol red and supplemented with 10% FCS, 100 μg/mL hygromycin and 500 μg/mL geneticin. On the assay day, the medium of the subconfluent cultures is removed and the cells are detached by addition of 2.5 ml EDTA (0.02%) per 175 cm2 culture flask for 1 minute. The cells are resuspend in Ringer solution (140 mM NaCl, 5 mM KCl, 2.5 mM CaCl2, 1.5 mM MgCl2, 5 mM Glucose, 10 mM Hepes; adjusted to pH 7.4 with NaOH), pooled and Ringer solution added to adjust the volume to 50 mL. The cell suspension is centrifuged for […] at 1500 U/min (425 g). The supernatant is removed and the cells washed a second time with 50 ml fresh Ringer solution and centrifuged again as before. The supernatant is again removed and the pellet resuspended in Ringer solution to 1,000,000 cells/ml (1×10^6 cells/mL). The cells are plated onto BD BioCoat Poly-D-Lysine 384 well plates (20.000 cells/well; 20 μl/well). The lid covered plates are then incubated until use at 37° C./10% CO2. For dye loading, 20 μl of Calcium-4 assay kit solution (prepared according to the manufacturer's description in Ringer solution) are added to the cells and the plates are incubated for […] 37° C. and then […] at room temperature.
Controls, Compound Dilution and Assay Execution:
Each assay plate contained wells with “high” and “low” controls:
Low controls 1% DMSO/ringer solution+basal glutamate activation (defined as 100% CTL).
High controls 10 μM CDPPB+basal glutamate activation (defined as 200% CTL).
Test compounds are dissolved and diluted in DMSO to 100-fold the desired concentrations. In a second step, the compounds are diluted in Ringer solution such that the compounds are 4-fold more concentrated than the desired final assay concentration. The final DMSO concentration was 1%.
20 μl of each compound solution are then transferred to the assay plate and the Ca2+ kinetic is measured to determine any intrinsic compound activity. After 5 mM incubation in the FLIPR device, the second stimulation with 20 μl of glutamate in Ringer solution (glutamate concentration adjusted to approximately 5% basal stimulation of the maximal possible glutamate effect) is added and the kinetic Ca2+ response of the wells was measured for the modulation effect.
The peak height of the Ca release related fluorescence signal (9-66) is used for the EC50. The EC50 of the modulation is calculated over a nonlinear regression with GraphPad Prism (Table 1).
The term EC50 denotes the concentration that produces a half-maximal response. With `CCc1cc(-c2ccc(F)c(C)c2)nn1CC(=O)N1CCc2nc(N)sc2CC1` [Example 7.02.026], the EC50 worked out at 0.083 µM.

Consider `O=C(Cn1nc(-c2ccccc2)cc1-c1ccccc1)N1CCC(c2nccs2)CC1` [Example 7.01.044], for which the EC50 stood at 1.85 µM. On to `O=C(Cn1nc(-c2ccccc2)cc1-c1ccccc1)N1Cc2nc(-c3ccccc3)sc2C1` [Example 7.01.032], for which the EC50 was 0.71 µM. With `CCc1cc(-c2cccc(C#N)c2)nn1CC(=O)N1CCN(c2nnc(C)o2)CC1` [Example 7.02.187], the EC50 is 1.61 µM.

For `COCc1cc(-c2ccc(F)c(C)c2)nn1CC(=O)N1CCc2nc(N)sc2CC1` [Example 7.01.056], the EC50 was determined as 0.253 µM. Next, `CCCc1cc(-c2ccc(F)c(C)c2)nn1CC(=O)N1CCC(c2cc(OC)ncn2)CC1` [Example 7.02.068]: 0.199 µM; `CCc1cc(-c2cc(C)c(F)c(C)c2)nn1CC(=O)N1Cc2nc(C)sc2C1` [Example 7.02.181]: 0.398 µM; `COc1ccc(-c2cc(C(C)C)n(CC(=O)N3CCc4cc(OC)ccc4C3)n2)cc1` [Example 7.02.039]: 0.915 µM. Next, `O=C(Cn1nc(-c2ccccc2)cc1-c1ccccc1)N1CCN(c2nnc(C(F)(F)F)s2)CC1` [Example 7.01.042]: 0.285 µM. Next, `Cc1cc(-c2cc(C3CCCCC3)n(CC(=O)N3CCc4nc(N)sc4CC3)n2)ccc1F` [Example 7.02.050]: 0.183 µM. `Cc1ccc(-c2cc(-c3ccccc3)n(CC(=O)N3CCc4nc(C)sc4CC3)n2)nc1` [Example 7.02.116]: the EC50 came out at 0.021 µM.

As to `Cc1nc2c(s1)CCN(C(=O)Cn1nc(-c3ccc(C)c(C)n3)cc1-c1ccccc1)CC2` [Example 7.02.122], the EC50 was 0.038 µM.

`CCc1cc(-c2cccc(C#N)c2)nn1CC(=O)N1CC=C(c2ncc(C)o2)CC1` [Example 7.02.182]: the EC50 came to 0.065 µM. Next, `CCCc1cc(-c2ccc(F)c(C)c2)nn1CC(=O)N1CC=C(c2cc(OC)ncn2)CC1` [Example 7.02.070]: 0.04 µM; `CCc1cc(-c2ccc(F)c(C)c2)nn1CC(=O)N1CCc2oc(C)nc2C1` [Example 7.01.075]: 0.087 µM; `N#Cc1cccc(-c2cc(-c3ccccc3)n(CC(=O)N3CCc4nc(N)sc4CC3)n2)c1` [Example 7.02.190]: 0.029 µM. Next, `CCc1cc(-c2ccc(F)c(C)c2)nn1CC(=O)N1Cc2nc(C)sc2C1` [Example 7.02.025]: 0.148 µM; `CCc1cc(-c2ccc(F)c(C)c2)nn1CC(=O)N1CCc2nc(OC)sc2CC1` [Example 7.02.164]: 0.046 µM; `CCc1cc(-c2ccc(F)c(C)c2)nn1CC(=O)N1CCc2nc(C)oc2C1` [Example 7.01.077]: 0.11 µM. For `CCc1cc(-c2ccc(F)cc2)nn1CC(=O)N1CCN(c2cccc(OC)c2)C(=O)C1` [Example 7.02.028], the EC50 stood at 0.943 µM. For `Cc1cc(-c2cc(-c3ccccc3)n(CC(=O)N3CCC(C)(c4nnc(C(C)C)o4)CC3)n2)ccc1F` [Example 7.02.018] the value was 0.693 µM; for `O=C(Cn1nc(-c2ccccc2)cc1-c1ccccc1)N1CCc2ncsc2CC1` [Example 7.02.004], 0.689 µM; for `Cc1ccc(-c2cc(-c3ccccc3)n(CC(=O)N3CCc4nc(N)sc4CC3)n2)nc1` [Example 7.02.117], 0.066 µM. On to `Cc1nnc(C2CCN(C(=O)Cn3nc(-c4ccc(F)c(C)c4)cc3-c3ccccc3)CC2)o1` [Example 7.02.019], for which the EC50 worked out at 0.036 µM.

Take `Cc1cc(-c2cc(-c3ccccc3)n(CC(=O)N3CCc4ncc(C)n4CC3)n2)ccc1F` [Example 7.01.086]: the EC50 was 0.274 µM. For `Cc1cc(-c2cc(-c3ccccc3)n(CC(=O)N3CCc4ccc(N)cc4CC3)n2)ccc1F` [Example 7.01.095] the value was 0.053 µM; for `O=C(Cn1nc(-c2ccccc2)cc1-c1ccccc1)N1CCc2c(F)cccc2C1` [Example 7.01.009], 1.54 µM; for `CCCc1cc(-c2ccc(F)c(C)n2)nn1CC(=O)N1Cc2nc(C)oc2C1` [Example 7.02.249], 0.184 µM. As to `Cc1nc2c(s1)CN(C(=O)Cn1nc(-c3ccc(F)cn3)cc1-c1ccccc1)C2` [Example 7.02.057], the EC50 amounted to 0.913 µM. In the case of `Cc1cc(-c2cc(-c3ccccc3)n(CC(=O)N3CCc4cc(=O)n(C)nc4CC3)n2)ccc1F` [Example 7.01.081], the EC50 was 0.03 µM. For `Cc1cc(-c2cc(-c3ccccc3)n(CC(=O)N3CCc4cc(-c5ccccc5)nnc4CC3)n2)ccc1F` [Example 7.01.082] the value was 0.066 µM; for `O=C(Cn1nc(-c2ccccc2)cc1-c1ccccc1)N1CCc2c(Cl)cccc2C1` [Example 7.01.039], 0.752 µM.

In the case of `Nc1nc2c(s1)CCN(C(=O)Cn1nc(-c3cccc(Cl)c3)cc1-c1ccccc1)CC2` [Example 7.02.138], the EC50 was determined as 0.044 µM. For `CCc1cc(-c2ccc(F)c(C)c2)nn1CC(=O)N1CCc2ccc(N)cc2CC1` [Example 7.01.072] the value was 0.245 µM; for `Cc1nnc(C2CCN(C(=O)Cn3nc(-c4cccc(Cl)c4)cc3-c3ccccc3)CC2)o1` [Example 7.02.139], 0.101 µM; for `CCc1nnc(N2CCN(C(=O)Cn3nc(-c4ccc(F)c(C)c4)cc3-c3ccccc3)CC2)o1` [Example 7.02.160], 0.023 µM. Next, `Nc1nc2c(s1)CCN(C(=O)Cn1nc(-c3ccc(F)cn3)cc1-c1ccccc1)CC2` [Example 7.02.058]: 0.75 µM. In the case of `COc1ccc(-c2cc(-c3ccccc3)n(CC(=O)N3Cc4nc(C)oc4C3)n2)cc1C` [Example 7.02.246], the EC50 amounted to 0.062 µM. In the case of `CCc1cc(-c2ccc(F)c(C)c2)nn1CC(=O)N1CCc2cn[nH]c2CC1` [Example 7.01.098], the EC50 amounted to 0.477 µM. Next, `COc1cccc(-c2cc(C3CCCCC3)n(CC(=O)N3CCc4nc(N)sc4CC3)n2)c1` [Example 7.02.052]: 0.297 µM; `COc1ccccc1N1CCN(C(=O)Cn2nc(-c3ccccc3)cc2-c2ccccc2)CC1=O` [Example 7.01.011]: 1.97 µM. Next, `CCc1cc(-c2ccc(C)c(C)c2)nn1CC(=O)N1CCC(c2cc(OC)ncn2)CC1` [Example 7.02.092]: 0.369 µM. For `Cc1nc(N2CCN(C(=O)Cn3nc(-c4ccc(F)c(C)c4)cc3C)CC2)no1` [Example 7.02.154] the value was 0.108 µM; for `CCc1cc(-c2ccc(F)c(C)c2)nn1CC(=O)N1CCC(c2ncc(C)s2)CC1` [Example 7.02.141], 0.138 µM; for `CCc1cccc(-c2cc(CC)n(CC(=O)N3Cc4nc(C)sc4C3)n2)c1` [Example 7.02.125], 0.253 µM.

`CCc1cc(-c2ccc(C)c(F)c2)nn1CC(=O)N1CCc2nc(C)sc2CC1` [Example 7.02.238]: the EC50 was found to be 0.146 µM. For `Cc1cc(-c2cc(-c3ccccc3)n(CC(=O)N3CCC(c4nnc(C(C)C)o4)CC3)n2)ccc1F` [Example 7.02.017] the value was 0.068 µM; for `Cc1nc(N2CCN(C(=O)Cn3nc(-c4ccc(F)c(C)n4)cc3-c3ccccc3)CC2)no1` [Example 7.02.174], 0.039 µM; for `Cc1nc2c(s1)CCN(C(=O)Cn1nc(-c3cc(C)c(F)cn3)cc1-c1ccccc1)CC2` [Example 7.02.175], 0.059 µM.

Consider `COCCCc1cc(-c2ccc(F)c(C)c2)nn1CC(=O)N1CCc2nc(C)sc2CC1` [Example 7.02.103], for which the EC50 was 0.034 µM.

Consider `COCCCc1cc(-c2ccc(F)c(C)c2)nn1CC(=O)N1Cc2nc(C)sc2C1` [Example 7.02.105], for which the EC50 was determined as 0.242 µM. For `Cc1cc(-c2cc(-c3ccccc3)n(CC(=O)N3CCc4ccsc4CC3)n2)ccc1F` [Example 7.02.130] the value was 0.057 µM; for `CCCc1cc(-c2ccc(F)c(C)c2)nn1CC(=O)N1CCc2nc(C)sc2CC1` [Example 7.02.067], 0.006 µM.

Regarding `Cc1nc(-c2cc(-c3ccccc3)n(CC(=O)N3CCc4nc(N)sc4CC3)n2)ccc1F` [Example 7.02.171], the EC50 amounted to 0.068 µM.

For the compound `CCCc1cc(-c2ccc(F)c(C)c2)nn1CC(=O)N1CCc2nc(N)sc2CC1` [Example 7.02.033], the half-maximal effective concentration (EC50) was determined as 0.029 µM.
